In patent US12564638B2 (SHANGHAITECH UNIVERSITY, priority 2019, dated 2026):
pIC50: −log10 of the molar value. Read-outs that look alike come from different tables or passages of the source.

How the values were obtained:
Assay type in all cases: cell-based
[1] = test system: HCC827 cells (EGFR Exon19 del, non-small cell lung cancer cells); assay: Cell viability assay (WST/CCK8), HCC827 cells; conditions: Homo sapiens, HCC827, 72 h, read-out: IC50 (half inhibitory concentration)
In short: (§1)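 Plated 3 000 cells/well in complete RPMI1640 the day before dosing; controls were DMSO (negative) and EGFR TKIs (positive).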

[2] = test system: BT474 cells (HER2 positive breast cancer cells); assay: Cell viability assay (CCK8), BT474 cells; conditions: Homo sapiens, BT-474, Table 10, BT474, 72 hours, read-out: IC50 (half inhibitory concentration)
Description: The cell lines with abnormal EGFR expression used are as follows: • HCC827 cells (EGFR Exon19 del, non-small cell lung cancer cells); • PC9 cells (EGFR Exon 19 del, non-small cell lung cancer cells); • PC9BracA1 (EGFR Exon 19 del+T790M, non-small cell lung cancer cells) • H1975 (EGFR Exon T790M+L858R mutation, non-small cell lung cancer cell line) • BT474 cells (HER2 positive breast cancer cells)
All of the half inhibitory concentrations (IC50) of these compounds of the present invention were determined with WST reagent from Fuyuan Biotec Company. The specific experiment procedures are as follows: Cancer cells were planted in 96-well-plate at the density of 3 000 cells per well with 100 μL RPMI1640 completed culture medium. In the next day, compounds with indicated concentrations were added to the cells, DMSO was used as the negative control and the EGFR TKIs were used to treat cells as the positive groups. After 72 hours drug treatment, cell viability was measured by using the WST reagent following the instructions. The growth inhibition curve of the compounds on cells were plotted by Prism GraphPad, and the compounds IC50 calculated from it.
The cell viability assays were taken to determine the anti-tumor activity of these indicated compounds in BT474 cells, which can overexpress HER2 protein. The cells were treated with the gradient concentration of these compounds (the maximum concentration: 10 μM; 3-fold dilution ratio, 10 concentration gradients) for 72 hours and then incubated with the CCK8 reagent to determine the cell viability.

[3] = test system: PC9 cells (EGFR Exon 19 del, non-small cell lung cancer cells); assay: Cell viability assay (WST/CCK8), PC9 cells; conditions: Homo sapiens, read-out: IC50 (half inhibitory concentration)
In short: as §1

[4] = Table 6, canertinib-based compounds, HCC827 (Exon19 Del), 72 hours, WST
[5] = PC-9, Table 6, canertinib-based compounds, PC9 (Exon19 Del), 72 hours, WST
[6] = HCC827 (Exon19 Del), 72 hours, WST (CCK8)
[7] = PC-9, PC9 (Exon19 Del), 72 hours, WST (CCK8)

Row | Structure (SMILES) | pIC50 [1, 4] | pIC50 [2] | pIC50 [3, 5] | pIC50 [1, 6] | pIC50 [3, 7] | other results
1 | C=CC(=O)Nc1cc2c(Nc3ccc(F)c(Cl)c3)ncnc2cc1OCCCN1CCN(C(=O)CCC(=O)NCCOCCNc2cccc3c2C(=O)N(C2CCC(=O)NC2=O)C3=O)CC1 (stereo not shown) [SIAIS249099, 4-(4-(3-((6-acrylamido-4-((3-chloro-4-fluorophenyl)amino)quinazolin-7-yl)oxy)propyl)piperazin-1-yl)-N-(2-(2-((2-(2,6-dioxopiperidin-3-yl)-1,3-dioxoisoindolin-4-yl)amino)ethoxy)ethyl)-4-oxobutanamide] | 7.93 | 7.45 | 7.53 | – | – | –
2 | COc1cc2ncnc(Nc3ccc(F)c(Cl)c3)c2cc1NC(=O)/C=C/CN1CCC(N2CCN(C(=O)CCCCCCSc3cccc4c3C(=O)N(C3CCC(=O)NC3=O)C4=O)CC2)CC1 (stereo not shown) [SIAIS262033, (E)-N-(4-((3-chloro-4-fluorophenyl)amino)-7-methoxyquinazolin-6-yl)-4-(4-(4-(7-((2-(2,6-dioxopiperidin-3-yl)-1,3-dioxoisoindolin-4-yl)thio)heptanoyl)piperazin-1-yl)piperidin-1-yl)but-2-enamide] | – | 9.15 | – | ~9.00 | 8.42 | –
3 | COc1cc2ncnc(Nc3ccc(F)c(Cl)c3)c2cc1NC(=O)/C=C/CN1CCC(NC(=O)CCNc2cccc3c2C(=O)N(C2CCC(=O)NC2=O)C3=O)CC1 (stereo not shown) [SIAIS249082, (E)-N-(4-((3-chloro-4-fluorophenyl)amino)-7-methoxyquinazolin-6-yl)-4-(4-(3-((2-(2,6-dioxopiperidin-3-yl)-1,3-dioxoisoindolin-4-yl)amino)propanamido)piperidin-1-yl)but-2-enamide] | – | 7.28 | – | 8.22 | 8.21 | –
4 | C=CC(=O)Nc1cc2c(Nc3ccc(F)c(Cl)c3)ncnc2cc1OCCCN1CCN(C(=O)CSc2cccc3c2CN(C2CCC(=O)NC2=O)C3=O)CC1 (stereo not shown) [SIAIS262121, N-(4-((3-chloro-4-fluorophenyl)amino)-7-(3-(4-(2-((2-(2,6-dioxopiperidin-3-yl)-1-oxoisoindolin-4-yl)thio)acetyl)piperazin-1-yl)propoxy)quinazolin-6-yl)acrylamide] | 8.03 | 8.28 | 7.36 | – | – | –
5 | C=CC(=O)Nc1cc2c(Nc3ccc(F)c(Cl)c3)ncnc2cc1OCCCN1CCN(C(=O)CCCC(=O)N[C@H](C(=O)N2C[C@H](O)C[C@H]2C(=O)NCc2ccc(-c3scnc3C)cc2)C(C)(C)C)CC1 [SIAIS262128, (2S,4R)-1-((S)-2-(5-(4-(3-((6-acrylamido-4-((3-chloro-4-fluorophenyl)amino)quinazolin-7-yl)oxy)propyl)piperazin-1-yl)-5-oxopentanamido)-3,3-dimethylbutanoyl)-4-hydroxy-N-(4-(4-methylthiazol-5-yl)benzyl)pyrrolidine-2-carboxamide] | 7.84 | 7.38 | 7.80 | – | – | –
6 | COc1cc2ncnc(Nc3ccc(F)c(Cl)c3)c2cc1NC(=O)/C=C/CN1CCC(NC(=O)CCCCCSc2cccc3c2CN(C2CCC(=O)NC2=O)C3=O)CC1 (stereo not shown) [SIAIS262114, (E)-N-(1-(4-((4-((3-chloro-4-fluorophenyl)amino)-7-methoxyquinazolin-6-yl)amino)-4-oxobut-2-en-1-yl)piperidin-4-yl)-6-((2-(2,6-dioxopiperidin-3-yl)-1-oxoisoindolin-4-yl)thio)hexanamide] | – | 7.05 | – | 8.40 | 7.92 | –
7 | C=CC(=O)Nc1cc2c(Nc3ccc(F)c(Cl)c3)ncnc2cc1OCCCN1CCN(C(=O)CCc2ccc(CCC(=O)N[C@H](C(=O)N3C[C@H](O)C[C@H]3C(=O)NCc3ccc(-c4scnc4C)cc3)C(C)(C)C)cc2)CC1 [SIAIS249102, (2S,4R)-1-((S)-2-(3-(4-(3-(4-(3-((6-acrylamido-4-((3-chloro-4-fluorophenyl)amino)quinazolin-7-yl)oxy)propyl)piperazin-1-yl)-3-oxopropyl)phenyl)propanamido)-3,3-dimethylbutanoyl)-4-hydroxy-N-(4-(4-methylthiazol-5-yl)benzyl)pyrrolidine-2-carboxamide] | 7.60 | 8.42 | 7.80 | – | – | –
8 | COc1cc2ncnc(Nc3ccc(F)c(Cl)c3)c2cc1NC(=O)/C=C/CN1CCC(NCCCC#Cc2cccc3c2CN(C2CCC(=O)NC2=O)C3=O)CC1 (stereo not shown) [SIAIS262116, (E)-N-(4-((3-chloro-4-fluorophenyl)amino)-7-methoxyquinazolin-6-yl)-4-(4-((5-(2-(2,6-dioxopiperidin-3-yl)-1-oxoisoindolin-4-yl)pent-4-yn-1-yl)amino)piperidin-1-yl)but-2-enamide] | – | 7.08 | – | 7.96 | 8.48 | –
9 | COc1cc2ncnc(Nc3ccc(F)c(Cl)c3)c2cc1NC(=O)/C=C/CN1CCC(NC(=O)CCCCSc2cccc3c2CN(C2CCC(=O)NC2=O)C3=O)CC1 (stereo not shown) [SIAIS262113, (E)-N-(1-(4-((4-((3-chloro-4-fluorophenyl)amino)-7-methoxyquinazolin-6-yl)amino)-4-oxobut-2-en-1-yl)piperidin-4-yl)-5-((2-(2,6-dioxopiperidin-3-yl)-1-oxoisoindolin-4-yl)thio)pentanamide] | – | 7.17 | – | 7.31 | 8.41 | –
10 | C=CC(=O)Nc1cc2c(Nc3ccc(F)c(Cl)c3)ncnc2cc1OCCCN1CCOCC1 [canertinib, reference compound] | – | 7.76 | – | – | – | pIC50 [1]: 9.15; pIC50 ([3]; PC-9, 72 h): 9.05
11 | COc1cc2ncnc(Nc3ccc(F)c(Cl)c3)c2cc1NC(=O)/C=C/CN1CCC(NCCCCC#Cc2cccc3c2CN(C2CCC(=O)NC2=O)C3=O)CC1 (stereo not shown) [SIAIS262117, (E)-N-(4-((3-chloro-4-fluorophenyl)amino)-7-methoxyquinazolin-6-yl)-4-(4-((6-(2-(2,6-dioxopiperidin-3-yl)-1-oxoisoindolin-4-yl)hex-5-yn-1-yl)amino)piperidin-1-yl)but-2-enamide] | – | 6.32 | – | 7.80 | 7.51 | –
12 | COc1cc2ncnc(Nc3ccc(F)c(Cl)c3)c2cc1NC(=O)/C=C/CN1CCC(N)CC1 [SIAIS249077, (E)-4-(4-aminopiperidin-1-yl)-N-(4-((3-chloro-4-fluorophenyl)amino)-7-methoxyquinazolin-6-yl)but-2-enamide] | – | 7.91 | – | 7.70 | 9.10 | –
13 | C=CC(=O)N1CCC(Oc2cc3c(Nc4ccc(Cl)c(Cl)c4F)ncnc3cc2OC)CC1 [poziotinib, reference compound] | – | > 10.00 | – | 9.30 | – | pIC50 ([1]; Table 3, poziotinib-based compounds, HCC827 (Exon19 Del), 72 hours, WST (CCK8)): 9.30; pIC50 ([3]; PC-9, Table 3, poziotinib-based compounds, PC9 (Exon 19 Del), 72 hours, WST (CCK8)): > 10.00
